Experimental findings from US11000033B2, “Ketone or oxime compound, and herbicide” (NISSAN CHEMICAL CORPORATION, priority 2014, dated 2021) are described below.

Holding throughout (type): in vivo
One data set deals with Amaranthus retroflexus. Put plainly: Test Example 5: herbicidal effect by foliage application, plastic box (symbol N). The following applies: 320 g/ha, 3 weeks after application. The method in brief:
(§1)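 Post-emergence spray; diluvial soil (sterilized), ~1.5 cm seed cover; greenhouse 25–30° C; 14-day-old plants; water-diluted emulsion at predetermined dose; visual score at 3 wk post-treatment.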

The next data set has as its system Avena fatua. Kind of data set: Test Example 4: herbicidal effect by soil treatment (symbol I). The note with it: application herbicide amount 320 g/ha. In short, it runs like this:
(§2)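 Seeds were sown in sterilized diluvial soil, covered with about 1.5 cm of soil, and the soil surface was sprayed with a water-diluted emulsion of the compound at a predetermined rate. Plants grew in a greenhouse at 25° C. to 30° C.; effects were scored visually 3 weeks after application.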

A further data set relates to Digitaria ciliaris. Put plainly: Test Example 4: herbicidal effect by soil treatment (symbol F). The following applies: application herbicide amount 320 g/ha. In short, it runs like this:
as §2

Data set [1] concerns Echinochloa crus-galli var. crus-galli. Put plainly: Test Example 3: herbicidal effect by foliage application, Wagner pot (symbol H). The following applies: application herbicide amount 320 g/ha, Table 24. In short, it runs like this:
(§3)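 Post-emergence, paddy-type test: seedlings 14 d old in shallow-flooded (0.1–0.5 cm) alluvial soil, 25–30 °C greenhouse. Emulsion diluted to target rate, sprayed on leaves. Read-out: visual effect on each species at 3 weeks, per set criteria.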

The test system of data set [2] is Stellaria media. Put plainly: Test Example 5: herbicidal effect by foliage application, plastic box (symbol P). The following applies: 320 g/ha, 3 weeks after application. The method in brief:
as §1

In another data set the test system is rice plant. Kind of data set: Test Example 5: effect on crop by foliage application, plastic box (symbol b). The following applies: 320 g/ha, 3 weeks after application. The method in brief:
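Box culture: sterile diluvial soil, seeds spot-sown, ~1.5 cm cover, raised under glass at 25–30° C.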

Data set [3] relates to Alopecurus myosuroides. Put plainly: Test Example 4: herbicidal effect by soil treatment (symbol J). The note with it: application herbicide amount 320 g/ha. In short, it runs like this: as §2
Data set [4] has as its system Stellaria media. Put plainly: Test Example 4: herbicidal effect by soil treatment (symbol P). The following applies: application herbicide amount 320 g/ha. The method in brief: as §2
Data set [5] concerns Echinochloa crus-galli var. crus-galli. Kind of data set: Test Example 5: herbicidal effect by foliage application, plastic box (symbol H). The note with it: 320 g/ha, 3 weeks after application. The method in brief: as §1
The test system of the next data set is Chenopodium album. Kind of data set: Test Example 5: herbicidal effect by foliage application, plastic box (symbol O). The note with it: 320 g/ha, 3 weeks after application. The method in brief: as §1
Data set [6] deals with Echinochloa oryzacola Vasing. Put plainly: Test Example 2: herbicidal activity, application during weed generation in submerged conditions (symbol A). The following applies: Table 23; application herbicide amount 320 g/ha; grade 0-5 by criteria of Test Example 1. The method in brief:
(§4)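 Steps: fill pots with alluvial soil; add water to 4 cm depth; co-sow the three weeds; grow at 25° C. to 30° C. under glass; at 1–2 leaves, dose the floodwater with diluted emulsion; rate damage visually after 3 weeks.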

In a further data set the test system is wheat. Put plainly: Test Example 4: effect on crop by soil treatment (symbol e). The note with it: application herbicide amount 320 g/ha. The method in brief:
(§5)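 Sterilized diluvial soil, spot sowing, ~1.5 cm soil cover; greenhouse 25–30° C.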

Data set [7] deals with Alopecurus myosuroides. Kind of data set: Test Example 5: herbicidal effect by foliage application, plastic box (symbol J). The following applies: 320 g/ha, 3 weeks after application. In short, it runs like this: as §1
In a further data set the test system is rice. Put plainly: Test Example 4: effect on crop by soil treatment (symbol b). The following applies: application herbicide amount 320 g/ha. The method in brief:
as §5

The subject of a further data set is Setaria viridis. Put plainly: Test Example 4: herbicidal effect by soil treatment (symbol G). The note with it: application herbicide amount 320 g/ha. The method in brief:
as §2

In a further data set the test system is Veronica persica. Kind of data set: Test Example 4: herbicidal effect by soil treatment (symbol R). The note with it: application herbicide amount 320 g/ha. In short, it runs like this:
as §2

In another data set the test system is Scirpus juncoides. Put plainly: Test Example 2: herbicidal activity, application during weed generation in submerged conditions (symbol B). The note with it: Table 23; application herbicide amount 320 g/ha; grade 0-5 by criteria of Test Example 1. In short, it runs like this:
as §4

For the next data set, the system named is Leptochloa chinensis. Kind of data set: Test Example 3: herbicidal effect by foliage application, Wagner pot (symbol D). The note with it: application herbicide amount 320 g/ha, Table 24. In short, it runs like this:
as §3

The test system of a further data set is Lolium multiflorum Lam. Put plainly: Test Example 4: herbicidal effect by soil treatment (symbol K). The following applies: application herbicide amount 320 g/ha. The method in brief:
as §2

In the case of `CON=C(CC1CC(O)=C(c2c(C)cc(-n3cc(Cl)cn3)cc2C)C1=O)C1CC1` (stereo not drawn) [9-007], in the data set with Amaranthus retroflexus, the “N: Amaranthus retroflexus, herbicidal effect grade” value (from here on “N: Amaranthus retroflexus”) is on record as 0 (Herbicidal ratio of 5% or lower (almost no effect)). Further, in the data set on Avena fatua, the “Herbicidal effect grade, I: Avena fatua” value is 3 (Herbicidal ratio of 40% or higher and lower than 70%). In the data set with Digitaria ciliaris, the “Herbicidal effect grade, F: Digitaria ciliaris” value (“Herbicidal effect grade, F” below) is 5 (Herbicidal ratio of 90% or more (almost completely withered)). Besides, in data set [1], the “H (Echinochloa crus-galli var. crus-galli) herbicidal effect grade” value was 5 (Herbicidal ratio of 90% or more (almost completely withered)). Moreover, the “P: Stellaria media, herbicidal effect grade” value with Stellaria media [2] was 3 (Herbicidal ratio of 40% or higher and lower than 70%). Also, the “b: directly sowed rice plant, effect on crop grade” value with rice plant was 5 (Herbicidal ratio of 90% or more (almost completely withered)). In addition, the “Herbicidal effect grade, J: Alopecurus myosuroides” value (from here on “Herbicidal effect grade, J”) in the data set with Alopecurus myosuroides [3] was 5 (Herbicidal ratio of 90% or more (almost completely withered)). The “Herbicidal effect grade, P: Stellaria media” value (shortened to “Herbicidal effect grade, P”) in the data set on Stellaria media [4] was 0 (Herbicidal ratio of 5% or lower (almost no effect)). Also, in data set [5], the “H: Echinochloa crus-galli var. crus-galli, herbicidal effect grade” value was 5 (Herbicidal ratio of 90% or more (almost completely withered)). Also, the “O: Chenopodium album, herbicidal effect grade” value (from here on “O: Chenopodium album”) with Chenopodium album is 3 (Herbicidal ratio of 40% or higher and lower than 70%). Also, the “Herbicidal effect grade, A: Echinochloa oryzacola Vasing.” value in data set [6] is listed as 5 (Herbicidal ratio of 90% or more (almost completely withered)). In addition, the “Effect on crop grade, e: wheat” value in the data set on wheat is given as 0 (Herbicidal ratio of 5% or lower (almost no effect)). Further, the “J: Alopecurus myosuroides, herbicidal effect grade” value in the data set with Alopecurus myosuroides [7] was 5 (Herbicidal ratio of 90% or more (almost completely withered)). Besides, the “Effect on crop grade, b: directly sowed rice plant” value (shortened to “Effect on crop grade, b”) with rice is recorded as 5 (Herbicidal ratio of 90% or more (almost completely withered)). Further, in the data set with Setaria viridis, the “Herbicidal effect grade, G: Setaria viridis” value (shortened to “Herbicidal effect grade, G”) is 5 (Herbicidal ratio of 90% or more (almost completely withered)). For the same molecule, the “Herbicidal effect grade, R: Veronica persica” value (from here on “Herbicidal effect grade, R”) with Veronica persica is given as 0 (Herbicidal ratio of 5% or lower (almost no effect)). Besides, in the data set on Scirpus juncoides, the “Herbicidal effect grade, B: Scirpus juncoides” value (shortened to “Herbicidal effect grade, B”) was 4 (Herbicidal ratio of 70% or higher and lower than 90%). Moreover, the “D (Leptochloa chinensis) herbicidal effect grade” value in the data set on Leptochloa chinensis is recorded as 5 (Herbicidal ratio of 90% or more (almost completely withered)). The “Herbicidal effect grade, K: Lolium multiflorum Lam.” value (from here on “Herbicidal effect grade, K”) with Lolium multiflorum Lam. is listed as 5 (Herbicidal ratio of 90% or more (almost completely withered)).

Regarding `CC#Cc1cc(C)c(C2=C(O)CC(CC(=NOCC(F)(F)F)C(C)C)C2=O)c(C)c1` (stereo not drawn) [9-015], in the data set on Amaranthus retroflexus, the “N: Amaranthus retroflexus” value is 0 (Herbicidal ratio of 5% or lower (almost no effect)). In addition, the “Herbicidal effect grade, I: Avena fatua” value in the data set with Avena fatua was 1 (Herbicidal ratio of 5% or higher and lower than 20%). The “Herbicidal effect grade, F” value in the data set on Digitaria ciliaris is 5 (Herbicidal ratio of 90% or more (almost completely withered)). In addition, the “H (Echinochloa crus-galli var. crus-galli) herbicidal effect grade” value in data set [1] is 5 (Herbicidal ratio of 90% or more (almost completely withered)). Further, the “P: Stellaria media, herbicidal effect grade” value with Stellaria media [2] is 3 (Herbicidal ratio of 40% or higher and lower than 70%). For the same molecule, the “b: directly sowed rice plant, effect on crop grade” value in the data set on rice plant is given as 5 (Herbicidal ratio of 90% or more (almost completely withered)). Also, the “Herbicidal effect grade, J” value in the data set with Alopecurus myosuroides [3] was 5 (Herbicidal ratio of 90% or more (almost completely withered)). Also, the “Herbicidal effect grade, P” value in the data set on Stellaria media [4] is given as 0 (Herbicidal ratio of 5% or lower (almost no effect)). In addition, in data set [5], the “H: Echinochloa crus-galli var. crus-galli, herbicidal effect grade” value is given as 5 (Herbicidal ratio of 90% or more (almost completely withered)). Also, the “O: Chenopodium album” value with Chenopodium album is 3 (Herbicidal ratio of 40% or higher and lower than 70%). In data set [6], the “Herbicidal effect grade, A: Echinochloa oryzacola Vasing.” value is recorded as 5 (Herbicidal ratio of 90% or more (almost completely withered)). Besides, in the data set on wheat, the “Effect on crop grade, e: wheat” value was 3 (Herbicidal ratio of 40% or higher and lower than 70%). In addition, the “J: Alopecurus myosuroides, herbicidal effect grade” value in the data set on Alopecurus myosuroides [7] is listed as 5 (Herbicidal ratio of 90% or more (almost completely withered)). Moreover, in the data set on rice, the “Effect on crop grade, b” value is 5 (Herbicidal ratio of 90% or more (almost completely withered)). Moreover, the “Herbicidal effect grade, G” value in the data set on Setaria viridis is 5 (Herbicidal ratio of 90% or more (almost completely withered)). Also, in the data set on Veronica persica, the “Herbicidal effect grade, R” value is 0 (Herbicidal ratio of 5% or lower (almost no effect)). Further, in the data set on Scirpus juncoides, the “Herbicidal effect grade, B” value is 3 (Herbicidal ratio of 40% or higher and lower than 70%). Besides, in the data set with Leptochloa chinensis, the “D (Leptochloa chinensis) herbicidal effect grade” value was 5 (Herbicidal ratio of 90% or more (almost completely withered)). In addition, the “Herbicidal effect grade, K” value in the data set on Lolium multiflorum Lam. is reported as 5 (Herbicidal ratio of 90% or more (almost completely withered)).

For the molecule `CC#Cc1cc(C)c(C2=C(O)CC(CC(=NOCCOC)C3CC3)C2=O)c(C)c1` (stereo not drawn) [9-021], the “N: Amaranthus retroflexus” value in the data set on Amaranthus retroflexus is 2 (Herbicidal ratio of 20% or higher and lower than 40%). For the same molecule, the “Herbicidal effect grade, I: Avena fatua” value in the data set on Avena fatua was 1 (Herbicidal ratio of 5% or higher and lower than 20%). Further, the “Herbicidal effect grade, F” value in the data set with Digitaria ciliaris is listed as 5 (Herbicidal ratio of 90% or more (almost completely withered)). In addition, the “H (Echinochloa crus-galli var. crus-galli) herbicidal effect grade” value in [1] is 5 (Herbicidal ratio of 90% or more (almost completely withered)). Further, in the data set with Stellaria media [2], the “P: Stellaria media, herbicidal effect grade” value is 1 (Herbicidal ratio of 5% or higher and lower than 20%). Besides, in the data set with rice plant, the “b: directly sowed rice plant, effect on crop grade” value is 5 (Herbicidal ratio of 90% or more (almost completely withered)). Moreover, the “Herbicidal effect grade, J” value with Alopecurus myosuroides [3] was 5 (Herbicidal ratio of 90% or more (almost completely withered)). Moreover, the “Herbicidal effect grade, P” value with Stellaria media [4] was 0 (Herbicidal ratio of 5% or lower (almost no effect)). Moreover, the “H: Echinochloa crus-galli var. crus-galli, herbicidal effect grade” value in data set [5] is 5 (Herbicidal ratio of 90% or more (almost completely withered)). Further, the “O: Chenopodium album” value in the data set with Chenopodium album is 3 (Herbicidal ratio of 40% or higher and lower than 70%). Further, the “Herbicidal effect grade, A: Echinochloa oryzacola Vasing.” value in data set [6] is on record as 5 (Herbicidal ratio of 90% or more (almost completely withered)). For the same molecule, the “Effect on crop grade, e: wheat” value in the data set with wheat was 3 (Herbicidal ratio of 40% or higher and lower than 70%). Further, in the data set on Alopecurus myosuroides [7], the “J: Alopecurus myosuroides, herbicidal effect grade” value was 5 (Herbicidal ratio of 90% or more (almost completely withered)). Besides, the “Effect on crop grade, b” value in the data set on rice is on record as 5 (Herbicidal ratio of 90% or more (almost completely withered)). In addition, the “Herbicidal effect grade, G” value in the data set with Setaria viridis was 5 (Herbicidal ratio of 90% or more (almost completely withered)). In the data set on Veronica persica, the “Herbicidal effect grade, R” value is 3 (Herbicidal ratio of 40% or higher and lower than 70%). In the data set on Scirpus juncoides, the “Herbicidal effect grade, B” value is given as 5 (Herbicidal ratio of 90% or more (almost completely withered)). Also, the “D (Leptochloa chinensis) herbicidal effect grade” value with Leptochloa chinensis is 5 (Herbicidal ratio of 90% or more (almost completely withered)). In addition, in the data set with Lolium multiflorum Lam., the “Herbicidal effect grade, K” value is recorded as 5 (Herbicidal ratio of 90% or more (almost completely withered)).
